The kinase profiling compilation of Christmann-Franck et al. (2016)

How the values were obtained:
Assay in all cases: split-luciferase competition binding
RPS6KA5 KD1 (human) = RPS6KA5 KD1 (human) (UniProt O75582); conditions: compound 10.0 µM
PDPK1 (human) = PDPK1 (human) (UniProt O15530); conditions: compound 10.0 µM
SGK3 (human) = SGK3 (human) (UniProt Q96BR1); conditions: compound 10.0 µM
PRKX (human) = PRKX (human) (UniProt P51817); conditions: compound 10.0 µM
DMPK (human) = DMPK (human) (UniProt Q09013); conditions: compound 10.0 µM
AURKB (human) = AURKB (human) (UniProt Q96GD4); conditions: compound 10.0 µM
PRKACB (human) = PRKACB (human) (UniProt P22694); conditions: compound 10.0 µM
RPS6KA2 KD1 (human) = RPS6KA2 KD1 (human) (UniProt Q15349); conditions: compound 10.0 µM
RPS6KA1 KD1 (human) = RPS6KA1 KD1 (human) (UniProt Q15418); conditions: compound 10.0 µM
RPS6KA6 KD1 (human) = RPS6KA6 KD1 (human) (UniProt Q9UK32); conditions: compound 10.0 µM
AKT2 (human) = AKT2 (human) (UniProt P31751); conditions: compound 10.0 µM
AKT1 (human) = AKT1 (human) (UniProt P31749); conditions: compound 10.0 µM
RPS6KA3 KD1 (human) = RPS6KA3 KD1 (human) (UniProt P51812); conditions: compound 10.0 µM
PRKCG (human) = PRKCG (human) (UniProt P05129); conditions: compound 10.0 µM
PKN1 (human) = PKN1 (human) (UniProt Q16512); conditions: compound 10.0 µM
AURKA (human) = AURKA (human) (UniProt O14965); conditions: compound 10.0 µM
AURKC (human) = AURKC (human) (UniProt Q9UQB9); conditions: compound 10.0 µM
PRKCD (human) = PRKCD (human) (UniProt Q05655); conditions: compound 10.0 µM
STK32B (human) = STK32B (human) (UniProt Q9NY57); conditions: compound 10.0 µM
PRKCQ (human) = PRKCQ (human) (UniProt Q04759); conditions: compound 10.0 µM
PRKCH (human) = PRKCH (human) (UniProt P24723); conditions: compound 10.0 µM
AKT3 (human) = AKT3 (human) (UniProt Q9Y243); conditions: compound 10.0 µM
SGK2 (human) = SGK2 (human) (UniProt Q9HBY8); conditions: compound 10.0 µM
PRKACA (mouse) = conditions: compound 10.0 µM; accession and sequence are those of the human protein
PRKCI (human) = PRKCI (human) (UniProt P41743); conditions: compound 10.0 µM
PRKCE (human) = PRKCE (human) (UniProt Q02156); conditions: compound 10.0 µM
RPS6KA4 KD1 (human) = RPS6KA4 KD1 (human) (UniProt O75676); conditions: compound 10.0 µM

AURKA (human), sequence (O14965 whole entry, looked up): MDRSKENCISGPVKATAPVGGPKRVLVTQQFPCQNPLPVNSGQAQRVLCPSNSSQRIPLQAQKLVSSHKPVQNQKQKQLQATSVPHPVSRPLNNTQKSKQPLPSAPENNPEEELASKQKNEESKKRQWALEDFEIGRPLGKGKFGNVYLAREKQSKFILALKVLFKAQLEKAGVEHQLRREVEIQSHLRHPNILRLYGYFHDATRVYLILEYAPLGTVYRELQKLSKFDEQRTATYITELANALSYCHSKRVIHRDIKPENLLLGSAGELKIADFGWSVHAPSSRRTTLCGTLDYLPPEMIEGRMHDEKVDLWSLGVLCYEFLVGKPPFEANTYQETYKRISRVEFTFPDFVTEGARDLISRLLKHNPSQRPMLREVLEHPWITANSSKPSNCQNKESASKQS
AURKC (human), sequence (Q9UQB9 whole entry, looked up): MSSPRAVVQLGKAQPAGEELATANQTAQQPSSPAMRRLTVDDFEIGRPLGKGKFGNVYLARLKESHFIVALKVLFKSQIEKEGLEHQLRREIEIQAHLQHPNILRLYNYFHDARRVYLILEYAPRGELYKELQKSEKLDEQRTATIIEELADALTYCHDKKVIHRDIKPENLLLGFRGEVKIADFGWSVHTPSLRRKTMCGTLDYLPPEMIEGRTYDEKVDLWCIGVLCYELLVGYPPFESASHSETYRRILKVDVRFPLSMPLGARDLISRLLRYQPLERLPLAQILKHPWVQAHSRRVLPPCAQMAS
PRKCH (human), sequence (P24723 whole entry, looked up): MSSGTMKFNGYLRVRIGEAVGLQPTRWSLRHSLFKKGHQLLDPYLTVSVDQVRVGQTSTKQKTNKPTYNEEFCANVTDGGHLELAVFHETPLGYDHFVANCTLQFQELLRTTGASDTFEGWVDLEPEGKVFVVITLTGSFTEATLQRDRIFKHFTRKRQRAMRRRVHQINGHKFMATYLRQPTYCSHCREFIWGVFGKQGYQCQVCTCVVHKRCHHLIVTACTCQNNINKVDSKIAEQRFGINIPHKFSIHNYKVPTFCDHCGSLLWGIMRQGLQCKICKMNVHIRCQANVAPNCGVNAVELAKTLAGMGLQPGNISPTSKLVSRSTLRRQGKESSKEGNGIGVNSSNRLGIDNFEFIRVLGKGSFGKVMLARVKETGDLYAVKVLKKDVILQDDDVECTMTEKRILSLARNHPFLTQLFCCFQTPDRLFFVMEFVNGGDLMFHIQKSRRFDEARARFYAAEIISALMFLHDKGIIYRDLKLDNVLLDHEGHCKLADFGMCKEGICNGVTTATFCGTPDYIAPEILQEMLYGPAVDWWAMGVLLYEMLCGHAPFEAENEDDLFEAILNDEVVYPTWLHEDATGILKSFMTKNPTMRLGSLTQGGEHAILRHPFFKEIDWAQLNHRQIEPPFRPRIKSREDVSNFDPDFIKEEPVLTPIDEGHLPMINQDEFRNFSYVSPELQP
RPS6KA3 KD1 (human), sequence (P51812 whole entry, looked up): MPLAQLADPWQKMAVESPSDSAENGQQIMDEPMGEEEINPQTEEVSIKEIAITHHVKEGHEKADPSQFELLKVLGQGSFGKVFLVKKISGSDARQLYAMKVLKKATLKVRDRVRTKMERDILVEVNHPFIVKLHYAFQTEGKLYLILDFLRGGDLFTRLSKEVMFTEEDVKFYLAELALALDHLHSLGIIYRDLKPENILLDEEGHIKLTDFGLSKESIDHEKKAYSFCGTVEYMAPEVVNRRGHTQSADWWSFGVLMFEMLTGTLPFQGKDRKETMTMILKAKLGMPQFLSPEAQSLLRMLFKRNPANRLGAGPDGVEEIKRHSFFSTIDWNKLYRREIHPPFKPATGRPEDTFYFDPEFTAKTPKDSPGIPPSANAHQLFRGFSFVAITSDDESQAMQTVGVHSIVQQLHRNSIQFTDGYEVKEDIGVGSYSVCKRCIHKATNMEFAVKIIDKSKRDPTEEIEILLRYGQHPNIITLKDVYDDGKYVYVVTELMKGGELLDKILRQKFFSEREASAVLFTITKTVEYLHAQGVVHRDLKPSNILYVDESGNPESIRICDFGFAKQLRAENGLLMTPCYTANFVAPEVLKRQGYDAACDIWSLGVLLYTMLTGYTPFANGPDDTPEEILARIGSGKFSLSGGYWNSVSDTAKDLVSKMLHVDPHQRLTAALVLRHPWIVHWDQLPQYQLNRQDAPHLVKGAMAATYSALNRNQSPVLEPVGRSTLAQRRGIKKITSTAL
PRKCE (human), sequence (Q02156 whole entry, looked up): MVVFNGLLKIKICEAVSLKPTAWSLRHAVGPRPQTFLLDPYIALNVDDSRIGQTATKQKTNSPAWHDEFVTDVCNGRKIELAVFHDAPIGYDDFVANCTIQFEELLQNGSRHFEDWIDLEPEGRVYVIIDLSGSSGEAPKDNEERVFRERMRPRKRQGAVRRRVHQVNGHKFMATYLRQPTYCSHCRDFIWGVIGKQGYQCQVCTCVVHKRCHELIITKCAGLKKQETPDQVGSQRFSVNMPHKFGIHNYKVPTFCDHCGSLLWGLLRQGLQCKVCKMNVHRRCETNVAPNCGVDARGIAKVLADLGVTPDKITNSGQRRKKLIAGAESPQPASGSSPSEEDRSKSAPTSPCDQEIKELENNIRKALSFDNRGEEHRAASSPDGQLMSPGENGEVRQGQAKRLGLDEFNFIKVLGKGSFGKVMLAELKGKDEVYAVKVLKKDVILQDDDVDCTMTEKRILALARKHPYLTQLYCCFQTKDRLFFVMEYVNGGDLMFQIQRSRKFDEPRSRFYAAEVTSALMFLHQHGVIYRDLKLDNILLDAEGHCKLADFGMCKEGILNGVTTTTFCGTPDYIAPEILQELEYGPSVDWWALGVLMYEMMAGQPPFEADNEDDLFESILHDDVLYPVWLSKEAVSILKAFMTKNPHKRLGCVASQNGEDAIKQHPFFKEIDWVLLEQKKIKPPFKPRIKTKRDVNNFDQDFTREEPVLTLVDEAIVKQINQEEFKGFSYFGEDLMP
DMPK (human), sequence (Q09013 whole entry, looked up): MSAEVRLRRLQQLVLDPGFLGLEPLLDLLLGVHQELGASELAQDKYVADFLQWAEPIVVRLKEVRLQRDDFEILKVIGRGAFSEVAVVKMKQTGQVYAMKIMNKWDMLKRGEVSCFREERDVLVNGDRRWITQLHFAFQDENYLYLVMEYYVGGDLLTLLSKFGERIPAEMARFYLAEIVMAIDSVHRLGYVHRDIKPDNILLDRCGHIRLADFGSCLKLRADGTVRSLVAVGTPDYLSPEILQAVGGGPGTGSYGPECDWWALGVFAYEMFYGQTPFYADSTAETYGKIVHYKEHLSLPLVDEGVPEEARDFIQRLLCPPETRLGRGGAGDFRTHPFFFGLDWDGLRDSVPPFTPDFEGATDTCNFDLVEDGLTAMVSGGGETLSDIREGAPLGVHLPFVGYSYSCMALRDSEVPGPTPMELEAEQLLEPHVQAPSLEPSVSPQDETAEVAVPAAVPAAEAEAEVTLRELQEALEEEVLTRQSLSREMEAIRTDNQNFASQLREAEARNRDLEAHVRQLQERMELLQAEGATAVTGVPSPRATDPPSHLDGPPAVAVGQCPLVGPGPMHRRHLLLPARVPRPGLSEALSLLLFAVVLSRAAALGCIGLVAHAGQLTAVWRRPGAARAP
PKN1 (human), sequence (Q16512 whole entry, looked up): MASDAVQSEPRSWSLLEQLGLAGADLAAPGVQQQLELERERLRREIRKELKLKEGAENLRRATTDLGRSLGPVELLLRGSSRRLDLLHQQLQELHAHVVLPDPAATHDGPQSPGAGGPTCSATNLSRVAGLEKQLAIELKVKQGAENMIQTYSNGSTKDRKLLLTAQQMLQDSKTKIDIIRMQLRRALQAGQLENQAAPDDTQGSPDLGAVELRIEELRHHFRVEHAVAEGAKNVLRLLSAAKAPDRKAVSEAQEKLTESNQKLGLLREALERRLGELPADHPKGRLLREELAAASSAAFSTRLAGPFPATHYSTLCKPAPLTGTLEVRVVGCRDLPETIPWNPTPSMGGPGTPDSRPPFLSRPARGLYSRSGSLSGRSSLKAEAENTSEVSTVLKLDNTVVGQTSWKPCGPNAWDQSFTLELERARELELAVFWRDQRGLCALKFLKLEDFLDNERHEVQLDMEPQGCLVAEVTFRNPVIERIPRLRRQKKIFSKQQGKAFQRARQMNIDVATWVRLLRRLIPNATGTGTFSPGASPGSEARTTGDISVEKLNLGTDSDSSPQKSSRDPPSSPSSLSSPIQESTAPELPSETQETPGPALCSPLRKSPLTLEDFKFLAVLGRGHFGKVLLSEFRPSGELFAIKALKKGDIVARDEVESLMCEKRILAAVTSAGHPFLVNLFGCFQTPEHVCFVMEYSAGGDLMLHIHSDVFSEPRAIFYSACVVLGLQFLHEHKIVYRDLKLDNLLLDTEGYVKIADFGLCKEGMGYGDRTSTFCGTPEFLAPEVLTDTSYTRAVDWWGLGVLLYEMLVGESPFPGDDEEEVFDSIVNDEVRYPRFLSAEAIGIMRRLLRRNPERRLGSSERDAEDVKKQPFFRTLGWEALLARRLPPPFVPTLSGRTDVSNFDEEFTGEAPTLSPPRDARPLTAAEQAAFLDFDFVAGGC
PRKCI (human), sequence (P41743 whole entry, looked up): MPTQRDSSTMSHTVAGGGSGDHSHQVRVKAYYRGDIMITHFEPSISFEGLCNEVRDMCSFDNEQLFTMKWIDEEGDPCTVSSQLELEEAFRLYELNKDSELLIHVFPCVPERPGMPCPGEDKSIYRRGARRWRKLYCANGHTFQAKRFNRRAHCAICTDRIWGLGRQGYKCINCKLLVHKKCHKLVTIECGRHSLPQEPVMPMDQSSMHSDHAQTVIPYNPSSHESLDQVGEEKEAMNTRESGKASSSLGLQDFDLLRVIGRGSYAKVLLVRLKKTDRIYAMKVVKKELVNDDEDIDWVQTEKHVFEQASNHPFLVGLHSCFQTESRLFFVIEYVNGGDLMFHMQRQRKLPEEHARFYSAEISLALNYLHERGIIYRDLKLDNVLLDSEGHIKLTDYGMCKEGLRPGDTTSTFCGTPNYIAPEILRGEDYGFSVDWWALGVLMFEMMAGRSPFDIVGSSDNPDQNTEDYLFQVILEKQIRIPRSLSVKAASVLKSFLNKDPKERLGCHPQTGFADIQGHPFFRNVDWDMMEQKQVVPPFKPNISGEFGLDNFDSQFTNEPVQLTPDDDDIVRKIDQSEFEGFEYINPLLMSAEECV

| Structure (SMILES) | inhibition (RPS6KA5 KD1 (human)) | inhibition (PDPK1 (human)) | inhibition (SGK3 (human)) | inhibition (PRKX (human)) | inhibition (DMPK (human)) | inhibition (AURKB (human)) | inhibition (PRKACB (human)) | inhibition (RPS6KA2 KD1 (human)) | inhibition (RPS6KA1 KD1 (human)) | inhibition (RPS6KA6 KD1 (human)) | inhibition (AKT2 (human)) | inhibition (AKT1 (human)) | inhibition (RPS6KA3 KD1 (human)) | inhibition (PRKCG (human)) | inhibition (PKN1 (human)) | inhibition (AURKA (human)) | inhibition (AURKC (human)) | inhibition (PRKCD (human)) | inhibition (STK32B (human)) | inhibition (PRKCQ (human)) | also measured |
| --- | --- | --- | --- | --- | --- | --- | --- | --- | --- | --- | --- | --- | --- | --- | --- | --- | --- | --- | --- | --- | --- |
| CCN(CC)CCCCN1c2ccccc2Oc2ccc(Cl)cc21 | 0% | 0% | 0% | 7% | 7% | 8% | 0% | 7% | 0% | 0% | 0% | 0% | 0% | 0% | 6% | 0% | 16% | 0% | 0% | 4% | inhibition (PRKCH (human)): 0%; inhibition (AKT3 (human)): 0%; inhibition (SGK2 (human)): 0%; inhibition (PRKACA (mouse)): 0%; inhibition (PRKCI (human)): 2%; inhibition (PRKCE (human)): 3%; inhibition (RPS6KA4 KD1 (human)): 0% |
| CC(C)(C)n1nc(-c2cccc3ccccc23)c2c(N)ncnc21 | 0% | 0% | 0% | 9% | 27% | 12% | 21% | 10% | 24% | 4% | 0% | 18% | 30% | 5% | 0% | 0% | 17% | 0% | 66% | 31% | inhibition (PRKCH (human)): 8%; inhibition (AKT3 (human)): 0%; inhibition (SGK2 (human)): 0%; inhibition (PRKACA (mouse)): 32%; inhibition (PRKCI (human)): 0%; inhibition (PRKCE (human)): 14%; inhibition (RPS6KA4 KD1 (human)): 0% |
| O=C1NC(=O)c2c1c1c3ccccc3[nH]c1c1[nH]c3ccccc3c21 | 47% | 22% | 81% | 62% | 30% | 50% | 20% | 42% | 51% | 36% | 0% | 22% | 23% | 7% | 0% | 1% | 35% | 17% | 9% | 45% | inhibition (PRKCH (human)): 65%; inhibition (AKT3 (human)): 0%; inhibition (SGK2 (human)): 70%; inhibition (PRKACA (mouse)): 27%; inhibition (PRKCI (human)): 0%; inhibition (PRKCE (human)): 25%; inhibition (RPS6KA4 KD1 (human)): 55% |
| O=S(=O)(c1cccc2c(Cl)cccc12)N1CCCNCC1 | 0% | 0% | 0% | 25% | 0% | 13% | 0% | 1% | 0% | 0% | 0% | 2% | 0% | 0% | 1% | 0% | 0% | 0% | 0% | 0% | inhibition (PRKCH (human)): 0%; inhibition (AKT3 (human)): 0%; inhibition (SGK2 (human)): 0%; inhibition (PRKACA (mouse)): 3%; inhibition (PRKCI (human)): 1%; inhibition (PRKCE (human)): 0%; inhibition (RPS6KA4 KD1 (human)): 0% |
| CS(=O)(=O)CCNCc1nc(-c2ccc3ncnc(Nc4ccc(OCc5cccc(F)c5)c(Cl)c4)c3c2)cs1 | 0% | 0% | 6% | 7% | 5% | 0% | 5% | 0% | 14% | 5% | 0% | 16% | 0% | 10% | 0% | 13% | 21% | 0% | 9% | 0% | inhibition (PRKCH (human)): 6%; inhibition (AKT3 (human)): 0%; inhibition (SGK2 (human)): 11%; inhibition (PRKACA (mouse)): 8%; inhibition (PRKCI (human)): 0%; inhibition (PRKCE (human)): 14%; inhibition (RPS6KA4 KD1 (human)): 6% |
